Molecular target: T1, Met receptor (EGFR/Met chimeric cells, EMR) (Homo sapiens, UniProt P08581)
T1 construct: expressed in transfected cells; the other entry of the earlier key: EGFR (P00533, Epidermal growth factor receptor)
Test: Met Autophosphorylation Assay
Type: biochemical
Conditions: protocol P.130
Outline: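 Met phosphorylation was measured by capture ELISA. Lysates (90 μg/100 μl, HNTG plus 1 mM PMSF) from transiently transfected EGFR/Met chimera (EMR) cells were bound for 60 min at room temperature to wells holding rabbit anti-Met (C-28) on goat anti-rabbit coat. Phosphotyrosine was the read-out.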

T1 sequence (P08581 with tags, fused parts or gaps): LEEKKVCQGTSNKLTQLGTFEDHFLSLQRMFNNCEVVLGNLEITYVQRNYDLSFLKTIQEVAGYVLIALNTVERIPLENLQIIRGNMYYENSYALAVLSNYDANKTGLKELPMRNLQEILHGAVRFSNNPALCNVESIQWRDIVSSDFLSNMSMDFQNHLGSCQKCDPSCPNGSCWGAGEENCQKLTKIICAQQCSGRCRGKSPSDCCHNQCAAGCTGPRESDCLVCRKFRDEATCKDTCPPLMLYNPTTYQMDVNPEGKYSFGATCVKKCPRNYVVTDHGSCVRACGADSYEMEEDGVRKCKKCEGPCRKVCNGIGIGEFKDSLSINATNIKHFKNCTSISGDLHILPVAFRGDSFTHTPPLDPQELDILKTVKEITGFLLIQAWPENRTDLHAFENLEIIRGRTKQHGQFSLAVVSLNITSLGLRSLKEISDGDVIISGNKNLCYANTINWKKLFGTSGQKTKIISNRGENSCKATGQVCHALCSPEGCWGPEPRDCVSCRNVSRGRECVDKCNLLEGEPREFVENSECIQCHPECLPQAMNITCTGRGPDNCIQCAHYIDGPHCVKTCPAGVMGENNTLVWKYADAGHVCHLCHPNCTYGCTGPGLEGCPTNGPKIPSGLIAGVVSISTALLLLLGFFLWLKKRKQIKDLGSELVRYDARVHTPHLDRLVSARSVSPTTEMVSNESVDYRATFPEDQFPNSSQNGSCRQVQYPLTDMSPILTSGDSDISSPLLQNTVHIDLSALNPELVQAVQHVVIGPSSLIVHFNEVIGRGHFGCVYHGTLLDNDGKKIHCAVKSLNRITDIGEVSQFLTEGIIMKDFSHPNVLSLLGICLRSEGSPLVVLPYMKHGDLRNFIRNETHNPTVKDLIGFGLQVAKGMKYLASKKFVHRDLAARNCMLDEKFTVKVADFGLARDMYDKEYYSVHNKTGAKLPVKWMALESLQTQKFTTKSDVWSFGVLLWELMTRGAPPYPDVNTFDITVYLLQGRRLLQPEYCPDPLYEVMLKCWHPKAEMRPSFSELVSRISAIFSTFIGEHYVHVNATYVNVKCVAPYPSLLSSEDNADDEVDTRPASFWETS

Row | Structure (SMILES) | Met Kinase % Inhibition (P.130)
1 | Cc1c(Br)cc(Br)c2c1C(=Cc1cc(O)cc(O)c1)C(=O)N2 [10738/H07] | 77.2%
2 | Cc1c(Br)cc(Br)c2c1C(=Cc1ccc(Cl)c(Cl)c1)C(=O)N2 [10738/H08] | 20.7%
3 | COc1ccccc1C=C1C(=O)Nc2c(Br)cc(Br)c(C)c21 [10738/H09] | 52.3%
4 | Cc1c(Br)cc(Br)c2c1C(=Cc1ccc(C(C)C)cc1)C(=O)N2 [10738/H10] | 27.7%
5 | CCCOc1ccc(C=C2C(=O)Nc3c(Br)cc(Br)c(C)c32)cc1 [10738/H11] | 24.9%
6 | COc1ccc(C=C2C(=O)Nc3c(Br)cc(Br)cc32)cc1C [10739/A02] | 41.8%
7 | O=C1Nc2c(Br)cc(Br)cc2C1=Cc1cccc(OCc2ccccc2)c1 [10739/A03] | 37.4%
8 | O=C1Nc2c(Br)cc(Br)cc2C1=Cc1ccc(OCc2ccccc2)cc1 [10739/A04] | 45.2%
9 | O=C1Nc2c(Br)cc(Br)cc2C1=CC1COc2ccccc2O1 (stereo not drawn) [10739/A05] | 36.5%
10 | O=C1Nc2c(Br)cc(Br)cc2C1=Cc1ccc(O)cc1Cl [10739/A06] | 70.1%
11 | O=C1Nc2c(Br)cc(Br)cc2C1=Cc1cc(O)c(O)c(O)c1 [10739/A07] | 99.9%
12 | COc1ccc(Oc2cccc(C=C3C(=O)Nc4c(Br)cc(Br)cc43)c2)cc1 [10739/A08] | 39.9%
13 | CN(C)CCCOc1ccc(C=C2C(=O)Nc3c(Br)cc(Br)cc32)cc1 [10739/A09] | 60.4%
14 | O=C1Nc2c(Br)cc(Br)cc2C1=Cc1ccoc1 [10739/A10] | 81.2%
15 | O=C1Nc2c(Br)cc(Br)cc2C1=Cc1ccc(CO)o1 [10739/A11] | 82.8%
16 | COc1ccc(C=C2C(=O)Nc3ccc(I)cc32)cc1C [10739/B02] | 68.1%
17 | O=C1Nc2ccc(I)cc2C1=Cc1cccc(OCc2ccccc2)c1 [10739/B03] | 62.4%
18 | O=C1Nc2ccc(I)cc2C1=Cc1ccc(OCc2ccccc2)cc1 [10739/B04] | 65.1%
19 | O=C1Nc2ccc(I)cc2C1=CC1COc2ccccc2O1 (stereo not drawn) [10739/B05] | 74.0%
20 | O=C1Nc2ccc(I)cc2C1=Cc1ccc(O)cc1Cl [10739/B06] | 68.1%
21 | O=C1Nc2ccc(I)cc2C1=Cc1cc(O)c(O)c(O)c1 [10739/B07] | 98.7%
22 | COc1ccc(Oc2cccc(C=C3C(=O)Nc4ccc(I)cc43)c2)cc1 [10739/B08] | 65.8%
23 | CN(C)CCCOc1ccc(C=C2C(=O)Nc3ccc(I)cc32)cc1 [10739/B09] | 63.5%
24 | O=C1Nc2ccc(I)cc2C1=Cc1ccoc1 [10739/B10] | 70.6%
25 | O=C1Nc2ccc(I)cc2C1=Cc1ccc(CO)o1 [10739/B11] | 84.9%
26 | COc1ccc(C=C2C(=O)Nc3ccc(Br)c(C)c32)cc1C [10739/C02] | 34.7%

Row | Structure (SMILES) | Met Kinase % Inhibition (P.130)
27 | Cc1c(Br)ccc2c1C(=Cc1cccc(OCc3ccccc3)c1)C(=O)N2 [10739/C03] | 10.9%
28 | Cc1c(Br)ccc2c1C(=Cc1ccc(OCc3ccccc3)cc1)C(=O)N2 [10739/C04] | −3.6%
29 | Cc1c(Br)ccc2c1C(=CC1COc3ccccc3O1)C(=O)N2 (stereo not drawn) [10739/C05] | 34.7%
30 | Cc1c(Br)ccc2c1C(=Cc1ccc(O)cc1Cl)C(=O)N2 [10739/C06] | 56.1%
31 | Cc1c(Br)ccc2c1C(=Cc1cc(O)c(O)c(O)c1)C(=O)N2 [10739/C07] | 93.0%
32 | COc1ccc(Oc2cccc(C=C3C(=O)Nc4ccc(Br)c(C)c43)c2)cc1 [10739/C08] | 9.1%
33 | Cc1c(Br)ccc2c1C(=Cc1ccc(OCCCN(C)C)cc1)C(=O)N2 [10739/C09] | 76.3%
34 | Cc1c(Br)ccc2c1C(=Cc1ccoc1)C(=O)N2 [10739/C10] | 66.3%
35 | Cc1c(Br)ccc2c1C(=Cc1ccc(CO)o1)C(=O)N2 [10739/C11] | 61.0%
36 | CNS(=O)(=O)c1ccc2c(c1)C(=Cc1ccc(OC)c(C)c1)C(=O)N2 [10739/D02] | 29.0%
37 | CNS(=O)(=O)c1ccc2c(c1)C(=Cc1cccc(OCc3ccccc3)c1)C(=O)N2 [10739/D03] | 15.9%
38 | CNS(=O)(=O)c1ccc2c(c1)C(=Cc1ccc(OCc3ccccc3)cc1)C(=O)N2 [10739/D04] | 11.1%
39 | CNS(=O)(=O)c1ccc2c(c1)C(=CC1COc3ccccc3O1)C(=O)N2 (stereo not drawn) [10739/D05] | 30.0%
40 | CNS(=O)(=O)c1ccc2c(c1)C(=Cc1ccc(O)cc1Cl)C(=O)N2 [10739/D06] | 59.2%
41 | CNS(=O)(=O)c1ccc2c(c1)C(=Cc1cc(O)c(O)c(O)c1)C(=O)N2 [10739/D07] | 86.0%
42 | CNS(=O)(=O)c1ccc2c(c1)C(=Cc1cccc(Oc3ccc(OC)cc3)c1)C(=O)N2 [10739/D08] | 5.2%
43 | CNS(=O)(=O)c1ccc2c(c1)C(=Cc1ccc(OCCCN(C)C)cc1)C(=O)N2 [10739/D09] | 66.7%
44 | COc1ccc(C=C2C(=O)Nc3ccc(S(=O)(=O)Nc4ccc(C(F)(F)F)cc4)cc32)cc1C [10739/E02] | 30.0%
45 | O=C1Nc2ccc(S(=O)(=O)Nc3ccc(C(F)(F)F)cc3)cc2C1=Cc1cccc(OCc2ccccc2)c1 [10739/E03] | −3.4%
46 | O=C1Nc2ccc(S(=O)(=O)Nc3ccc(C(F)(F)F)cc3)cc2C1=Cc1ccc(OCc2ccccc2)cc1 [10739/E04] | −15.2%
47 | O=C1Nc2ccc(S(=O)(=O)Nc3ccc(C(F)(F)F)cc3)cc2C1=CC1COc2ccccc2O1 (stereo not drawn) [10739/E05] | 8.9%
48 | O=C1Nc2ccc(S(=O)(=O)Nc3ccc(C(F)(F)F)cc3)cc2C1=Cc1ccc(O)cc1Cl [10739/E06] | 66.3%
49 | O=C1Nc2ccc(S(=O)(=O)Nc3ccc(C(F)(F)F)cc3)cc2C1=Cc1cc(O)c(O)c(O)c1 [10739/E07] | 94.0%
50 | COc1ccc(Oc2cccc(C=C3C(=O)Nc4ccc(S(=O)(=O)Nc5ccc(C(F)(F)F)cc5)cc43)c2)cc1 [10739/E08] | 16.1%
51 | CN(C)CCCOc1ccc(C=C2C(=O)Nc3ccc(S(=O)(=O)Nc4ccc(C(F)(F)F)cc4)cc32)cc1 [10739/E09] | 33.8%
52 | O=C1Nc2ccc(S(=O)(=O)Nc3ccc(C(F)(F)F)cc3)cc2C1=Cc1ccoc1 [10739/E10] | 71.9%

Row | Structure (SMILES) | Met Kinase % Inhibition (P.130)
53 | O=C1Nc2ccc(S(=O)(=O)Nc3ccc(C(F)(F)F)cc3)cc2C1=Cc1ccc(CO)o1 [10739/E11] | 76.9%
54 | COc1ccc(C=C2C(=O)Nc3ccc(S(=O)(=O)N4CCOCC4)cc32)cc1C [10739/F02] | 50.8%
55 | O=C1Nc2ccc(S(=O)(=O)N3CCOCC3)cc2C1=Cc1cccc(OCc2ccccc2)c1 [10739/F03] | 38.8%
56 | O=C1Nc2ccc(S(=O)(=O)N3CCOCC3)cc2C1=Cc1ccc(OCc2ccccc2)cc1 [10739/F04] | 30.4%
57 | O=C1Nc2ccc(S(=O)(=O)N3CCOCC3)cc2C1=CC1COc2ccccc2O1 (stereo not drawn) [10739/F05] | −5.4%
58 | O=C1Nc2ccc(S(=O)(=O)N3CCOCC3)cc2C1=Cc1ccc(O)cc1Cl [10739/F06] | 56.3%
59 | O=C1Nc2ccc(S(=O)(=O)N3CCOCC3)cc2C1=Cc1cc(O)c(O)c(O)c1 [10739/F07] | 100.5%
60 | COc1ccc(Oc2cccc(C=C3C(=O)Nc4ccc(S(=O)(=O)N5CCOCC5)cc43)c2)cc1 [10739/F08] | 13.4%
61 | CN(C)CCCOc1ccc(C=C2C(=O)Nc3ccc(S(=O)(=O)N4CCOCC4)cc32)cc1 [10739/F09] | −7.0%
62 | O=C1Nc2ccc(S(=O)(=O)N3CCOCC3)cc2C1=Cc1ccoc1 [10739/F10] | 40.4%
63 | O=C1Nc2ccc(S(=O)(=O)N3CCOCC3)cc2C1=Cc1ccc(CO)o1 [10739/F11] | 40.9%
64 | COc1ccc(C=C2C(=O)Nc3ccc(CCCl)cc32)cc1C [10739/G02] | 12.9. %
65 | O=C1Nc2ccc(CCCl)cc2C1=Cc1cccc(OCc2ccccc2)c1 [10739/G03] | 9.3%
66 | O=C1Nc2ccc(CCCl)cc2C1=Cc1ccc(OCc2ccccc2)cc1 [10739/G04] | 4.1%
67 | O=C1Nc2ccc(CCCl)cc2C1=CC1COc2ccccc2O1 (stereo not drawn) [10739/G05] | 27.7%
68 | O=C1Nc2ccc(CCCl)cc2C1=Cc1ccc(O)cc1Cl [10739/G06] | 27.7%
69 | O=C1Nc2ccc(CCCl)cc2C1=Cc1cc(O)c(O)c(O)c1 [10739/G07] | 92.6%
70 | COc1ccc(Oc2cccc(C=C3C(=O)Nc4ccc(CCCl)cc43)c2)cc1 [10739/G08] | 20.9%
71 | CN(C)CCCOc1ccc(C=C2C(=O)Nc3ccc(CCCl)cc32)cc1 [10739/G09] | 46.1%
72 | O=C1Nc2ccc(CCCl)cc2C1=Cc1ccoc1 [10739/G10] | 36.5%
73 | O=C1Nc2ccc(CCCl)cc2C1=Cc1ccc(CO)o1 [10739/G11] | 56.7%
74 | COc1ccc(C=C2C(=O)Nc3c(Br)cc(Br)c(C)c32)cc1C [10739/H02] | 26.6%
75 | Cc1c(Br)cc(Br)c2c1C(=Cc1cccc(OCc3ccccc3)c1)C(=O)N2 [10739/H03] | 10.4%
76 | Cc1c(Br)cc(Br)c2c1C(=Cc1ccc(OCc3ccccc3)cc1)C(=O)N2 [10739/H04] | −2.7%
77 | Cc1c(Br)cc(Br)c2c1C(=Cc1ccc(O)cc1Cl)C(=O)N2 [10739/H06] | 42.2%
78 | Cc1c(Br)cc(Br)c2c1C(=Cc1cc(O)c(O)c(O)c1)C(=O)N2 [10739/H07] | 93.7%

Reference: patent US20020026053A1, “Novel 3-(substituted) -2- indolinones compounds and use thereof as inhibitors of protein kinase activity” (priority 1997, published 2002)
